{
  "source": "patent US9877940B2",
  "about": "“Anthraquinone compounds and their uses” (DUNDALK INSTITUTE OF TECHNOLOGY, priority 2010, dated 2018)",
  "key": {"L-type calcium channel": {"test_system": "L-type calcium channel", "assay": "Inward L-type calcium current, perforated patch clamp with Cs+ pipette solution, isolated smooth muscle cells of the rabbit bladder", "format": "cell-based", "settings": "held at −60 mV, stepped to 0 mV for 500 ms", "description": "Using methods described above herein, the patch pipette solution was altered to allow for measurement of inward L-type calcium currents which although present in earlier studies are not visible due to the overwhelming size of the outward BK current. By replacing K^+ with Cs^+ ions, the outward current is now blocked and a prominent inward current carried by Calcium is present. This is the L-type calcium ion channel currents allowing calcium into the cells.\nAll values in (mM): CsCl, 132.96. MgCl2.6H20, 1. EGTA, 0.5 and HEPES, 10.\nWith reference to FIG. 5, isolated smooth muscle cells from the rabbit bladder were held at −60 mV and stepped to 0 mV for 500 ms. Pipette solutions contained Cs^+ to block outward K^+ currents."}, "BK channels [1]": {"target": "T1, BK channels (Oryctolagus cuniculus, UniProt Q9BG98)", "T1 construct": "wherein the native BK channels were more sensitive to Ca^2+; from tissue", "T1 sequence (Q9BG98 whole entry)": "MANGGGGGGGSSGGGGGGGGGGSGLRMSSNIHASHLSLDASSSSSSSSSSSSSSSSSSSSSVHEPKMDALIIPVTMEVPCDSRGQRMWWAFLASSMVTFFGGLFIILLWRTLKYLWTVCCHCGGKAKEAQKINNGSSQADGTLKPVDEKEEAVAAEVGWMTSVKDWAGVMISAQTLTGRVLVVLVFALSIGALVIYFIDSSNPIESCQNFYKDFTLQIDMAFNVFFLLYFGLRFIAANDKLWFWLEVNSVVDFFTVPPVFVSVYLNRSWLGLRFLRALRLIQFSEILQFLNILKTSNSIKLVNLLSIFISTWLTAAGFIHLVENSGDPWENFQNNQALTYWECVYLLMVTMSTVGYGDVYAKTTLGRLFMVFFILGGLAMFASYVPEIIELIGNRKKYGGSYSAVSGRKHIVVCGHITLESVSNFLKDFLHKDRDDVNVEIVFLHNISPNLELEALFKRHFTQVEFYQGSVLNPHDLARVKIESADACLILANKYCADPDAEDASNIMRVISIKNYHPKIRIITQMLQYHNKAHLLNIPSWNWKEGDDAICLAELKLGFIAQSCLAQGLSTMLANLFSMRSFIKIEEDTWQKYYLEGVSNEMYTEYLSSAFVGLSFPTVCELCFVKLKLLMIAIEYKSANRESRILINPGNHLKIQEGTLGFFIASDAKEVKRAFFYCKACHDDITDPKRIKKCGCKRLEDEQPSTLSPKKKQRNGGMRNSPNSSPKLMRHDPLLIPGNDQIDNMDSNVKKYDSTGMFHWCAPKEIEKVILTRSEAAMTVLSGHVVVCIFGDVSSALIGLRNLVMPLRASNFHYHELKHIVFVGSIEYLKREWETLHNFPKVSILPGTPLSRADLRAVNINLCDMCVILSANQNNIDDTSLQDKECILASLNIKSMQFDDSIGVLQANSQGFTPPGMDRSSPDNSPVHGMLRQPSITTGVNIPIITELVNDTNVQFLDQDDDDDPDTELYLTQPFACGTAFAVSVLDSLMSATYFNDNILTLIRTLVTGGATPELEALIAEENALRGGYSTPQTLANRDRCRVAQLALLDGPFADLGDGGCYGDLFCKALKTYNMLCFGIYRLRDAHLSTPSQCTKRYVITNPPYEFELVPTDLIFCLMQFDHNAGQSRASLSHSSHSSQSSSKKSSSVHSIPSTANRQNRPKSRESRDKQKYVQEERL", "assay": "Single channel recordings, inside-out patch clamp, voltage ramps, isolated smooth muscle cells of the rabbit bladder", "format": "cell-based", "settings": "for ΔV1/2 (mV) in 100 nm Ca^2+: 10 μM compound, inside-out patch; for effect on BK channel activity, in words (SAR discussion based on V1/2 data): inside out patches on rabbit smooth muscle cells", "experimental": "All experiments were approved by the Dundalk Institute of Technology Animal Care and Use Committee. […] The urinary bladder and most proximal 1.5 cm of the urethra was removed and placed in Krebs solution. Strips of bladder tissue, 0.5 cm in width were dissected, cut into 1 mm^3 pieces and stored in Ca^2+-free Hanks' solution for 30 min prior to cell dispersal. Tissue pieces were incubated in dispersal medium containing (per 5 ml) of Ca^2+-free Hanks' solution: 15 mg collagenase (Sigma type 1A), 1 mg protease (Sigma type XXIV), 10 mg bovine serum albumin (Sigma) and 10 mg trypsin inhibitor (Sigma) for 10-15 min at 37° C. Tissue was then transferred to Ca^2+-free Hanks' solution and stirred for a further 10-15 min to release single smooth muscle cells. These were plated in Petri dishes containing 100 μM Ca^2+ Hanks' solution and stored at 4° C. for use within 8 h. During experiments, the dish containing the cells was continuously perfused with Hanks' solution at 36±1° C. Additionally the cell under study was continuously superfused by means of a custom built close delivery system with a pipette of tip diameter 200 μm placed approximately 300 μm from the cell. The high K^+ solution in the close delivery system could be switched to a drug-containing solution with a dead space time of less than 5 s.\nFor whole cell recordings pipettes were pulled from borosilicate glass capillary tubing (1.5 mm outer diameter, 1.17 mm inner diameter; Clark Medical Instruments) to a tip of diameter approximately 1-1.5 μm and resistance of 2-4 Mohms. For single channel recordings, pipettes were pulled from borosilicate glass capillary tubing (1.5 mm outer diameter, 0.8 mm inner diameter; Clark Medical Instruments) and fire polished before use. Voltage clamp commands were delivered via an Axopatch 1D or Axon 200B patch clamp amplifiers (Axon Instruments) and membrane currents were recorded by a 12 bit AD/DA converter (Axodata 1200 or Labmaster, Scientific Solutions) interfaced to an Intel computer running pCLAMP software.\nAll values in (mM): KCl, 140. Glucose, 10, EGTA 1 and HEPES, 10. For free Ca^2+ greater than 300 nM: All values in (mM): KCl, 140. Glucose, 10, H-EDTA 1 and HEPES, 10. The same solution composition is used in the bath as in the patch pipette for these experiments except that the pipette solution contained 100 nM Ca^2+.\nIn single channel experiments voltage commands were applied using pClamp ramped potentials. This allowed more efficient measurement of slope conductance and channel activation than conventional step depolarisations. Activation curves were calculated by averaging current responses to 15 potential ramps and dividing each data point of the averaged current by the single channel amplitude at that holding potential, after leakage current correction. […] This analysis provides a continuous recording of the number of open channels multiplied by the open probability (NPo) over the entire voltage range. To obtain values for the steepness of the voltage-dependent activation and half-maximal activation voltage, activation curves were fitted with Boltzman functions of the form: NPo=n/{1+exp[−K(V−V1/2)]} where N is the number of channels in the patch, n is the maximal NPo level, K^−1 is the steepness of the voltage-dependent activation (change in potential necessary to cause an e-fold increase in activation) and V1/2 is the voltage at which there is half-maximal activation. Again, all of the experiments were carried out at 36±1° C.\nThe patches were held at a potential of −100 mV and voltage ramps were then applied from −100 mV up to +100 mV over 2 s.\nPatches were held at −100 mV and ramped through to +100 mV and each sweep was repeated 15 times. The same protocol was repeated after the patch was incubated in 1 μM Ca^2+."}, "BK channels [2]": {"target": "T1, BK channels", "assay": "Perforated patch whole cell patch clamp, outward BK current in isolated smooth muscle cells", "format": "cell-based, rabbit", "settings": "10 μM; steps from −80 mV to +50 mV; holding −60 mV", "protocol": "The cell membrane was perforated using the antibiotic amphotericin B (600 μg·ml^−1).\nStandard Hank's solution is used to bathe the cells in these experiments. Isolated smooth muscle cells from rabbit urethra we held at −60 mV. The test protocol involved stepping from −60 mV to −80 mV for 500 msecs, and then stepping the voltage up in +10 mV increments to +50 mV before returning to the holding potential of −60 mV."}, "BK channel": {"target": "BK channel (Homo sapiens, UniProt Q12791)", "sequence (Q12791 whole entry, species assumed)": "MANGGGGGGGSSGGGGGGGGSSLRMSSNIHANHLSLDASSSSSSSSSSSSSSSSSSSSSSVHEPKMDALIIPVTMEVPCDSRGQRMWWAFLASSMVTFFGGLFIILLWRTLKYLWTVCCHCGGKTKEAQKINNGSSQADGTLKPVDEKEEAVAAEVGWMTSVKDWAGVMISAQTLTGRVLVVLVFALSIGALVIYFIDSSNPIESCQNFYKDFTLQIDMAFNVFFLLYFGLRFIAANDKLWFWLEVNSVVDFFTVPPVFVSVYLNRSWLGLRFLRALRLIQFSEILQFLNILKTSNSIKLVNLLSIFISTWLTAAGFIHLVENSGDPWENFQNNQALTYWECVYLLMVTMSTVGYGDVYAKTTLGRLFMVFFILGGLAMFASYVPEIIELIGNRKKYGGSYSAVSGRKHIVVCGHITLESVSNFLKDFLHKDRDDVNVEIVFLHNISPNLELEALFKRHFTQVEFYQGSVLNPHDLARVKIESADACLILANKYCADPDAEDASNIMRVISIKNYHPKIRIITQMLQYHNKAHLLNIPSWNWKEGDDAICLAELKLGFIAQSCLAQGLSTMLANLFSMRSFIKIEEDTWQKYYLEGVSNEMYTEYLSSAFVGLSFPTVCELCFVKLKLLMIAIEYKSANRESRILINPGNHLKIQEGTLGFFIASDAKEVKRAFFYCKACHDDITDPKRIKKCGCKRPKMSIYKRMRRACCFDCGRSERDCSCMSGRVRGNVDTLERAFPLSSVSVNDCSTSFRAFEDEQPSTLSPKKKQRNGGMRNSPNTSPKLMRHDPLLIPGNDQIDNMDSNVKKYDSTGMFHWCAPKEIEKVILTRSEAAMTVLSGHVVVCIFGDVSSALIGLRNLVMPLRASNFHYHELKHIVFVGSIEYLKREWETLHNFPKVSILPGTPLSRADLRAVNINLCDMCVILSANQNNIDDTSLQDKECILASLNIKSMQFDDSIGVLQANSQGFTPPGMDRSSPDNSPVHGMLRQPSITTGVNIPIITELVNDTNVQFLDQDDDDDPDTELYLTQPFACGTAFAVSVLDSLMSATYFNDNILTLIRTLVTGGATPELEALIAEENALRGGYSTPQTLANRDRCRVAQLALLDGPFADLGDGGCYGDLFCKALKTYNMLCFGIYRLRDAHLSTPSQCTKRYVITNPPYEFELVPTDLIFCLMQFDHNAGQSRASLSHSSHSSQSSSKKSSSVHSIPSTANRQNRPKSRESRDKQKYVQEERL", "sequence (Q16558 whole entry partner, species assumed)": "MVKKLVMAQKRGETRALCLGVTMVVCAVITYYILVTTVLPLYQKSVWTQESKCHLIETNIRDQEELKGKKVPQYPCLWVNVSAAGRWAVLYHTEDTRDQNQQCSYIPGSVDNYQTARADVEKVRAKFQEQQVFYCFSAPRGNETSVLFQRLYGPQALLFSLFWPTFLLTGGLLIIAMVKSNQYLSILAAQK", "settings": "applied to the inside of the membrane; cited from earlier work"}},
  "data": [
    {"compound": "Nc1c(S(=O)(=O)[O-])cc(Nc2cccc(C(F)(F)F)c2)c2c1C(=O)c1ccccc1C2=O.[Na+]", "note": "[SR-5-6, sodium 1-amino-9,10-dioxo-4-(3-(trifluoromethyl)phenylamino)-9,10-dihydroanthracene-2-sulfonate]", "values": [
      {"measurement": "inward L-type calcium current amplitude", "setting": "L-type calcium channel", "value": "reduced in amplitude"}
    ]},
    {"compound": "Nc1c(S(=O)(=O)[O-])cc(Nc2ccc(Cc3ccccc3)cc2)c2c1C(=O)c1ccccc1C2=O.[Na+]", "note": "[SR-5-37, sodium 1-amino-4-(4-benzylphenylamino)-9,10-dioxo-9,10-dihydroanthracene-2-sulfonate]", "values": [
      {"measurement": "ΔV1/2 (mV) in 100 nm Ca^2+", "setting": "BK channels [1]; Table 1, V1/2 control vs drug", "value": "−77.8", "unit": "mV"},
      {"measurement": "effect on BK channel activity, in words (SAR discussion based on V1/2 data)", "setting": "BK channels [1]", "value": "BK channel openers"}
    ]},
    {"compound": "C=C(C)[C@H]1O[C@H]2CC[C@@]3(C)[C@@](O)(CC[C@H]4[C@@H]5OC(C)(C)[C@H]6C[C@@H]7C(=C)Cc8c(Cl)cc9[nH]c(c5c9c8[C@@]76O)[C@@]43C)[C@@]23O[C@H]3[C@H]1O", "note": "[Penitrem A, reference compound]", "values": [
      {"measurement": "effect on single channel openings", "setting": "BK channels [1]; 100 nM, 1 μM Ca2+, voltage ramp", "value": "abolished the single channel openings"}
    ]},
    {"compound": "Nc1c(S(=O)(=O)[O-])cc(Nc2ccccc2)c2c1C(=O)c1ccccc1C2=O.[Na+]", "note": "[Acid Blue 25, Sodium 1-Amino-9,10-Dioxo-4-(Phenylamino)-9,10-Dihydroanthracene-2-Sulfonate]", "values": [
      {"measurement": "ΔV1/2 (mV) in 100 nm Ca^2+", "setting": "BK channels [1]; Table 1, V1/2 control vs drug", "value": "−51.0", "unit": "mV"},
      {"measurement": "shifted the V1/2 by", "setting": "BK channels [1]; inside out patches, concentration not given", "value": "−56", "unit": "mV"},
      {"measurement": "amplitude of the outward BK current compared to control", "setting": "BK channels [2]", "value": "enhances the amplitude of the BK current"}
    ]},
    {"compound": "CC(C)(C)c1cccc(Nc2cc(S(=O)(=O)[O-])c(N)c3c2C(=O)c2ccccc2C3=O)c1.[Na+]", "note": "[SR-5-76, sodium 1-amino-4-((3-(tert-butyl)phenyl)amino)-9,10-dioxo-9,10-dihydroanthracene-2-sulfonate]", "values": [
      {"measurement": "ΔV1/2 (mV) in 100 nm Ca^2+", "setting": "BK channels [1]; Table 2", "value": "−94.9", "unit": "mV"},
      {"measurement": "effect on BK channel activity, in words (SAR discussion based on V1/2 data)", "setting": "BK channels [1]", "value": "BK channel agonists"}
    ]},
    {"compound": "Nc1c(S(=O)(=O)[O-])cc(Nc2cccc(OC(F)(F)F)c2)c2c1C(=O)c1ccccc1C2=O.[Na+]", "note": "[SR-5-34, sodium 1-amino-9,10-dioxo-4-(3-(trifluoromethoxy)phenylamino)-9,10-dihydroanthracene-2-sulfonate]", "values": [
      {"measurement": "ΔV1/2 (mV) in 100 nm Ca^2+", "setting": "BK channels [1]; Table 1, V1/2 control vs drug", "value": "−84.0", "unit": "mV"}
    ]},
    {"compound": "Cc1ccc(Nc2cc(S(=O)(=O)[O-])c(N)c3c2C(=O)c2ccccc2C3=O)cc1C(F)(F)F.[Na+]", "note": "[SR-5-44, sodium 1-amino-4-(4-methyl-3-(trifluoromethyl)phenylamino)-9,10-dioxo-9,10-dihydroanthracene-2-sulfonate]", "values": [
      {"measurement": "ΔV1/2 (mV) in 100 nm Ca^2+", "setting": "BK channels [1]; Table 1, V1/2 control vs drug", "value": "−145.4", "unit": "mV"}
    ]},
    {"compound": "Nc1c(S(=O)(=O)[O-])cc(Nc2cccc(S(=O)(=O)O)c2)c2c1C(=O)c1ccccc1C2=O.[Na+]", "note": "[SR-5-18, sodium 1-amino-9,10-dioxo-4-(3-sulfophenylamino)-9,10-dihydroanthracene-2-sulfonate]", "values": [
      {"measurement": "ΔV1/2 (mV) in 100 nm Ca^2+", "setting": "BK channels [1]; Table 1, V1/2 control vs drug", "value": "−23.2", "unit": "mV"},
      {"measurement": "effect on BK channel activity, in words (SAR discussion based on V1/2 data)", "setting": "BK channels [1]", "value": "decreases the activity dramatically"}
    ]},
    {"compound": "Nc1c(S(=O)(=O)[O-])cc(Nc2cccc(F)c2)c2c1C(=O)c1ccccc1C2=O.[Na+]", "note": "[SR-5-15, sodium 1-amino-4-(3-fluorophenylamino)-9,10-dioxo-9,10-dihydroanthracene-2-sulfonate]", "values": [
      {"measurement": "ΔV1/2 (mV) in 100 nm Ca^2+", "setting": "BK channels [1]; Table 1, V1/2 control vs drug", "value": "−28.4", "unit": "mV"}
    ]},
    {"compound": "Cc1cccc(Nc2cc(S(=O)(=O)[O-])c(N)c3c2C(=O)c2ccccc2C3=O)c1.[Na+]", "note": "[SR-5-26, sodium 4-(m-toluidino)-1-amino-9,10-dioxo-9,10-dihydroanthracene-2-sulfonate]", "values": [
      {"measurement": "ΔV1/2 (mV) in 100 nm Ca^2+", "setting": "BK channels [1]; Table 1, V1/2 control vs drug", "value": "−53.5", "unit": "mV"}
    ]},
    {"compound": "Nc1c(S(=O)(=O)[O-])cc(Nc2ccc(Cl)c(C(F)(F)F)c2)c2c1C(=O)c1ccccc1C2=O.[Na+]", "note": "[SR-5-40, sodium 1-amino-4-(4-chloro-3-(trifluoromethyl)phenylamino)-9,10-dioxo-9,10-dihydroanthracene-2-sulfonate]", "values": [
      {"measurement": "ΔV1/2 (mV) in 100 nm Ca^2+", "setting": "BK channels [1]; Table 1, V1/2 control vs drug", "value": "−97.8", "unit": "mV"}
    ]},
    {"compound": "Basilen blue", "values": [
      {"measurement": "BK channel activation, in words", "setting": "BK channel", "value": "moderately potent BK channel activator"}
    ]}
  ]
}
